# Data from paper PMC11813147, “Bioactivity assessment of peptides derived from salted jellyfish (Rhopilema hispidum) byproducts” (PLOS ONE, 2025).
# Assays:
# [1] = Ferric reducing antioxidant power (FRAP) assay; type: biochemical
# How it was run: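 Sample mixed with FRAP reagent (300 mM acetate buffer pH 3.6, 10 mM TPTZ in 40 mM HCl, 20 mM FeCl3; 10:1:1) and kept 15 min in the dark; absorbance at 593 nm. Values from an FeSO4 standard curve, as mM FeSO4 equivalent per mg protein.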
# [2] = test system: angiotensin I-converting enzyme (ACE); assay: ACE inhibitory activity assay (fluorometric ACE activity assay kit); type: biochemical; details: peptide sample 1 mg/mL; for ACE inhibitory activity, mean±SD: 37 °C, fluorescence ex 320/em 405 nm, n = 3
# [3] = ABTS radical scavenging assay; type: biochemical; details: for ABTS, mean±SD / ABTS: supplement tables
# How it was run: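 ABTS radical, generated with 2.45 mM potassium persulfate (12-16 h, dark, room temperature) and diluted to A734 0.74 ± 0.03, was mixed with sample 10:190 μL sample:ABTS and kept 7 min in the dark. Scavenging % from absorbance drop at 734 nm versus reagent-only control; TEAC from Trolox standard curve, as mM TE/mg protein.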
# [4] = DPPH radical scavenging assay; type: biochemical; details: supplement tables; for DPPH, mean±SD: n = 3
# How it was run: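 Sample mixed with 0.1 mM DPPH in 70% ethanol and kept 30 min in the dark at room temperature; absorbance read at 517 nm. Scavenging % taken from absorbance relative to a reagent-only control; Trolox standard curve gives TEAC as mM TE/mg protein.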
# RAW 264.7 = assay: Anti-inflammation assay: released NO in LPS-stimulated RAW 264.7 (Griess); type: cell-based, Murine; details: then 1 µg/mL LPS 24 h; for Released NO: peptide 10 µg/mL 1 h; for Released NO, mean±SD: peptide 10 µg/mL pre-treatment 1 h, Griess reagent, n = 3
# How it was run: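 RAW 264.7 cells pre-treated 1 h with peptide samples at 10 µg/mL, then stimulated with 1 µg/mL LPS for 24 h. NO released into conditioned medium quantified by Griess reagent against an NO calibration curve; unstimulated cells served as negative control.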
# [5] = 10 µL sample + 190 µL FRAP solution, 15 min dark, 593 nm, FeSO4 standard curve, mean ± SD, n = 3, SD
Sequence,"FRAP [1, 5]","FRAP ([1]; supplement tables, replicate 1) [mM FeSO4/mg protein]","FRAP ([1]; supplement tables, replicate 2) [mM FeSO4/mg protein]","FRAP ([1]; supplement tables, replicate 3) [mM FeSO4/mg protein]","ACE inhibitory activity, mean±SD [2]",ACE inhibitory activity ([2]; replicate 1) [%],ACE inhibitory activity ([2]; replicate 2) [%],ACE inhibitory activity ([2]; replicate 3) [%],"ABTS, mean±SD ([3]; mean ± SD, n = 3)",ABTS ([3]; replicate 1) [TE/mg protein],ABTS ([3]; replicate 2) [TE/mg protein],ABTS ([3]; replicate 3) [TE/mg protein],"DPPH, mean±SD [4]",DPPH ([4]; replicate 1) [TE/mg protein],DPPH ([4]; replicate 2) [TE/mg protein],DPPH ([4]; replicate 3) [TE/mg protein],Released NO (RAW 264.7; replicate 1) [µM],Released NO (RAW 264.7; replicate 2) [µM],Released NO (RAW 264.7; replicate 3) [µM],"Released NO, mean±SD (RAW 264.7) [µM]",other results
"PMETDDQPNN [P17, synthesized peptide identified from jellyfish fraction PUR20C]",6.50±1.59^G mM FeSO4/mg protein,7.63,7.21,4.68,12.40±2.23^H %,9.82,13.54,13.83,4.64 TE/mg protein,4.11,4.11,5.71,5.23±0.53^D TE/mg protein,4.70,5.23,5.76,34.48,34.82,34.82,34.71,
"RARVVPMY [P6, synthesized peptide identified from jellyfish fraction PUR20C]",10.78±0.63^D mM FeSO4/mg protein,10.15,11.42,10.78,33.68±0.59^E %,33.87,33.01,34.16,139.87±0.50^A TE/mg protein,139.34,139.94,140.34,3.28 TE/mg protein,3.11,2.84,3.90,34.82,35.51,39.65,36.66 ± 2.61,"ABTS radical scavenging activity (TEAC) ([3]; 10 µL sample + 190 µL ABTS solution, 7 min dark, 734 nm, Trolox standard curve, mean ± SD, n = 3): highest activity"
"RPLAKIIP [P8, synthesized peptide identified from jellyfish fraction PUR20C]",9.31 mM FeSO4/mg protein,9.31,9.52,9.10,29.96±3.35^F %,32.44,26.14,31.29,3.11 TE/mg protein,2.51,3.31,3.51,2.22 TE/mg protein,1.78,1.78,3.11,37.58,37.93,34.82,36.78,
"TDSPAPSETTD [P2, synthesized peptide identified from jellyfish fraction PUR20C]",7.63 mM FeSO4/mg protein,7.21,7.63,8.05,0.85±0.33^K %,0.66,1.24,0.66,2.91 TE/mg protein,3.11,2.71,2.91,2.84 TE/mg protein,2.31,3.11,3.11,38.27,37.24,37.58,37.70,
